The source of these data is US10631557B2, “Preservative system for acidic beverages based on sequestrants” (PepsiCo, Inc., priority 2008, dated 2020).

One series relates to Saccharomyces cerevisae. In words: Growth in beverage acidified to pH 3.6 with malic acid (Example 33). It is filed as cell-based.
Series [1] deals with Strain Y3. In words: Yeast strains spotted on agar-solidified beverage plates containing a weak organic acid (Example 25). It counts as cell-based, Zygossacharomyces bailii. The settings on record: sodium benzoate 700 or 1000 ppm, potassium sorbate 500 or 800 ppm, cinnamic acid 25-200 ppm. How it is done:
A 2 fold concentrate of beverage was prepared and was then mixed with an equal volume of 15% molten agar. Before solidification of the agar, the single strength beverage formulation containing 7.5% molten agar, was then divided into aliquots and to each separate aliquot was added, with the exception of one, sodium benzoate, potassium sorbate or cinnamic acid. The aliquot not receiving either potassium sorbate or cinnamic acid served as a positive control. While the agar was still molten, the agar-beverage aliquots (containing a single weak acid at a specified concentration) were poured into separate Petri plates. In Two agar plates. sodium benzoate was present at either 700 ppm or 1000 ppm) Two agar plates contained potassium sorbate (500 or 800 ppm). Six agar plates contained cinnamic acid ranging in concentrations of 25-200 ppm. Agar solidification essentially provides single strength beverage formulation in a semi-solid state.
The 2 fold concentrate of single strength beverage and the agar supplemented single strength beverage is prepared as follows:
After solidification of juice-agar mixture, various yeast strains (FIG. 2A) were spotted to the gel-surface of each type of mixture employing an identical pattern in each test (FIG. 2B) such that it was possible to identify the outgrowth of specific individual strains. […]

For series [2], the system named is all 7 bio-indicator strains. In words: Inoculated 2% juice beverage pH 3.4, sequestrant and weak acid combinations (Examples 27-29). It is filed as cell-based. Particulars: for SHMP concentration that prohibits outgrowth of all 7 bio-indicator strains: potassium sorbate 0.015%. An excerpt:
(§1) Copper, less than 1 microgram per liter Zinc less than 1 microgram per liter, Nickel, less than 1 microgram per liter and Iron less than 0.1 microgram per liter. The water hardness was/is adjusted to 50 ppm through addition of mixture of CaCl2 and MgCl2.
(§2) The spoilage organisms for the following examples are identified as follows: Y3, Zygosaccharomyces bailii isolate of Pepsi (Strain 906); C-7UP, Brettanomyces isolate of Pepsi, (Cherry 7-UP); Spore, ascospore preparation of Saccharomyces cerevisiae isolate of Pepsi (strain “spore”). Y22, ATCC 60484 Zygosacharomyces bailii; M1, Paecilomyces isolate of Pepsi; Y107 ATCC 52407; M2 ATCC 36614 Byssochlamys nieva. An inoculum of approximately 40 per milliliter was/is employed for each organism. All test samples were/are incubated 16 weeks at 25 C.
(§3) A preparation of beverage was divided into three aliquots; one was supplemented with EDTA (30 ppm) and the remaining two aliquots were supplemented with either 15 or 30 ppm EDDS.
(§4) The beverage aliquots were identical with the exception of the presence or concentration of either EDTA or EDDS. Each aliquot was divided further into smaller volume test samples wherein the concentration of potassium sorbate varies from 0-1500 ppm (0-0.15%). The concentration of EDTA or EDDS is held constant. Under these circumstances, it is possible to establish whether either EDTA or EDDS permitted the use of lowered concentrations of potassium sorbate to preserve a product of pH 3.4. […] The beverage is formulated to contain 50 ppm hardness.
The biodegradable sequestrant ethylene diamine disuccinic acid was admixed with a sodium hexametaphosphate and cinnamic acid in the beverage as shown in the formula for the beverage.
A 2% fruit juice based non-carbonated beverage of pH 3.4 and about 12 Brix was formed by combining the following ingredients.
The biodegradable sequestrant ethylene diamine disuccinic acid was admixed with a bis-phosphonate (Etidronate) wherein the two sequestrants combined to limit the availability of divalent cations to spoilage microorganisms. The beverage was also supplemented with potassium sorbate.
(§5) A 2% fruit juice based non-carbonated beverage of pH 3.4 and about 12Brix was formed by combining the following ingredients.

The conditions of series [3]: 25 C; cited from earlier work.
Series [4] is described as follows: Stability against heat or acid induced hydrolysis in beverage. It counts as physicochemical. Particulars: thermal processing or ambient aqueous solution. On the procedure: The maximum temperature of product in container of 71.3° C. permits the use of standard PET containers as opposed to the environmentally less-sound heat-set PET containers typically employed in hot fill operations. […] A formulation containing SHMP in place of bis-phosphonate will fail because of the degradation of SHMP that occurs during thermal processing.
Furthermore, the problem of pH drift that accompanies the use of SHMP is avoided. Substituting EDDS for EDTA avoids the concerns associated with employing a substance that is not environmentally sound.
Bis-phosphonates, as a substitute for SHMP, allows for the use of thermal processing of beverage in that all bis-phosphonates are stable against heat or acid induced hydrolysis. Such is not the case for polyphosphates such as SHMP. Furthermore, the problem of pH drift that accompanies the use of SHMP at ambient temperatures is avoided. Substituting EDDS for EDTA avoids the concerns associated with employing a substance that is not environmentally sound.

Series [5] concerns bio-indicators in the absence of Y3. The settings on record: potassium sorbate alone, pH 3.4, 16 weeks at 25 C, FIG. 3A.
Description: as §1, §2
(§6) A preparation of beverage was divided into multiple small volume aliquots, each aliquot containing a different concentration of potassium sorbate. The range of concentration of potassium sorbate is 0-0.094% (0-940 ppm). Preparations (aliquots) of beverage containing potassium sorbate at each test concentration (48 different values) are inoculated separately with one of 7 different spoilage organisms (bio-indicator) for a total of 336 test samples.
(§7) The 2% fruit juice based non-carbonated beverage of pH 3.4 and about 12 Brix was generated by combining the following ingredients.

For series [6], the system named is strain Y3. The settings on record: potassium sorbate alone.
Description: as §1, §2, §6, §7

For the next series, the system named is Mold (M1 & M6). The settings on record: pH 3.4.
Description: as §1, §2, §6, §3, §5, §4

For series [7] the following is noted: acid pH. The source says: Further, at least one regulatory agency in Asia has established an upper limit for the use of potassium sorbate at 50 ppm. If other regulatory agencies follow suite, it will be necessary to broadly apply a complement to potassium sorbate. […] Beverages are generally produced from concentrates and a […] beverage concentrate should contain 1200-1500 ppm potassium sorbate to yield a finished beverage concentration of 240-300 ppm. This often proves problematic during the batching of beverage and it is clear that a final beverage formulation containing 50-150 ppm potassium sorbate would be favored.

Molecules are shown by their SMILES. “And” between values parts separate entries of the source, which are not always exact repeats. Equal entries are not always repeated. Where two headings read alike, the source gives them in different places. Bounds are passed on as bounds.

Take `NCCCC(O)(P(=O)(O)O)P(=O)(O)O` [Alendronate, alendronate]: in the series with Saccharomyces cerevisae (0.3% concentration, same beverage formulation pH 3.6), the “effect on growth rate of Saccharomyces cerevisae” value is reported as “retards the growth rate”.

Turning to `O=C(O)C=Cc1ccccc1` [Cinnamic acid, cinnamic acid], in the series on Strain Y3 [1], the “tolerance of strain Y3 to organic acid preservative (outgrowth on plate)” value is listed as “among the most tolerant strains”.

`O=C(O)CC(NCCNC(CC(=O)O)C(=O)O)C(=O)O` (centres unmarked) [EDDS, ethylenediamine-N,N′-disuccinic acid]: the “preservative performance compared with EDTA when combined with a single weak acid preservative” value in [2] (15 or 30 ppm EDDS vs 30 ppm EDTA, potassium sorbate varied, FIGS. 4A-4C) is listed as “equivalent to EDTA”.

For the molecule `O=C(O)CN(CCN(CC(=O)O)CC(=O)O)CC(=O)O` [EDTA, ethylenediamine tetraacetic acid], the “log K for sodium” value in [3] is recorded as 1.7.

Regarding `CC(O)(P(=O)(O)O)P(=O)(O)O` [Etridonate, (1-hydroxyethylidene)bis-phosphonate], in series [2] (with 30 ppm EDDS (so in the source) and 150 ppm potassium sorbate, pH 3.4, FIG. 6D), the “Etridonate concentration that prevents outgrowth of all seven spoilage organisms” value is 250 ppm. The “Etridonate concentration that prohibits outgrowth of all seven bio-indicator strains” value in series [2] (with 30 ppm EDDS and 150 ppm potassium sorbate, pH 3.4, FIG. 6C) is < 425 ppm and < 450 ppm.

Take `CCCCCN(C)CCC(O)(P(=O)(O)O)P(=O)(O)O` [Ibandronate, ibandronate]: the “effect on growth of Saccharomyces cerevisae” value in the series on Saccharomyces cerevisae (about 300 ppm, beverage pH 3.6 with malic acid) is recorded as “impair the growth”.

For the molecule `O=C([O-])C=Cc1ccccc1.[K+]` [K+cinnamate, Potassium Cinnamate], the “K+cinnamate concentration that prohibits outgrowth of all 7 bio-indicator strains” value in [2] (with 30 ppm EDDS and 750 ppm SHMP, pH 3.4, FIG. 5B) was “no more than 50 ppm”; in [2] (with 30 ppm EDTA and 750 ppm SHMP, pH 3.4, FIG. 5A) it was 75 ppm.

Regarding `O=P1([O-])OP(=O)([O-])OP(=O)([O-])OP(=O)([O-])OP(=O)([O-])OP(=O)([O-])O1.[Na+].[Na+].[Na+].[Na+].[Na+].[Na+]` [SHMP, sodium hexametaphosphate], the “SHMP concentration that prohibits outgrowth of all 7 bio-indicator strains” value came to 280 ppm in series [2] (with 30 ppm EDDS, pH 3.4, FIG. 6A) and 250 ppm in series [2] (with 30 ppm EDTA, pH 3.4, FIG. 6B). The “stability against heat or acid induced hydrolysis” value in series [4] is given as “degradation”.

Regarding `C/C=C/C=C/C(=O)[O-].[K+]` [potassium sorbate], the “amount of potassium sorbate required to preserve product in the absence of Y3” value in series [5] is on record as 220-250 ppm. The “concentration of potassium sorbate required to inhibit Y3 or similar strains” value with strain Y3 [6] (pH 3.4, 16 weeks at 25 C, FIG. 3A) is 550-600 ppm. Besides, the “range of potassium sorbate concentrations with both growth and growth-free samples of Y3” value in the series with strain Y3 [6] (pH 3.4, FIG. 3A) was 460-660 ppm. Further, the “concentration of potassium sorbate required to inhibit mold” value in the series with Mold (M1 & M6) (combined with EDDS (30 ppm)) was 140-160 ppm; in the series with Mold (M1 & M6) (combined with EDTA (30 ppm)), 140-160 ppm; with Mold (M1 & M6) (potassium sorbate employed alone), 180-200 ppm. The rate of dissolution result in [7] was “measurably low”. In series [7], the solubility entry is listed as “not particularly soluble”.
